According to patent publication US20260240746A1, “TOPICAL COMPOSITION AND IMPLEMENTATIONS THEREOF” (ULTRAMARINE & PIGMENTS LIMITED, priority 2022, published 2026):
Several values for one entry are separate records, joined by “and”; a condition that tells them apart may be missing. Equal entries are not always repeated.

Tests used:
skin = assay: Moisturization analysis (Scalar moisture checker); assay type: in vivo, human; conditions: skin of the hand, 20° C., 60% RH
Method: The topical composition samples of the present disclosure and the commercial silicones (cyclopentasiloxane, dimethicone) were applied on a skin patch and the moisture content was analyzed for a duration of 8 hrs. The test was conducted on 3 volunteers. Three areas were marked on the skin of the hand. The composition was applied by rubbing in a circular direction for a period of two minute on the marked areas. The third area was kept blank. The readings were taken after five minutes of drying by Scaler Moisture Checker. The temperature of the room was kept at 20° C. and humidity was maintained at 60% RH. The moisture analysis was done using moisture checker from Scalar Impressive works. Scalar moisture checker works on the principle of capacitance to measure the permittivity of skin. […] The checker was pressed on the desired area perpendicularly to the skin and was held for a few seconds. […] Moisture level Content of 45.1 and above represent a very high moisture level, when moisture level is between 39.1-45.0 it is high normal, between 27.1-39.0 is mid normal, between 22.1-27.0 is low normal, between 12.1 to 22.0 is low and below 12.1 is very low moisture level. A graph of time after application and the moisture level content was plotted for each composition.

[1] = test system: Murine fibroblast cell line (3T3); assay: Skin reactivity analysis by agar diffusion assay; assay type: cell-based; conditions: 3T3 cells, 24 hours exposure
Method: Skin reactivity analysis was carried out for the topical composition samples by agar diffusion assay. Murine fibroblast cell line (3T3) cells were seeded onto 60 mm tissue culture grade plastic Petri dishes and incubated for 24 hrs. After 24 hrs the media was replaced by a layer of 1% agar. Stock solution of 100 mg/ml of reference standard was prepared in sterile phosphate buffered saline (PBS) and tested at 10% (100 mg/ml). 5 μl of reference standard was loaded on to 6 mm sterile Whatman filter paper discs which were placed on the agar layer. Neat topical composition sample was used for testing. Approximately 5 μl of the topical composition sample was loaded on to 6 mm sterile Whatman filter paper discs which were placed on the agar layer. Sterile PBS was used as the negative control. Positive and negative controls were run concurrently. After an exposure of 24 hours to the samples, the assays were terminated by the addition of MTT (3-[4,5-dimethylthiazol-2-yl]-2,5-diphenyltetrazolium bromide; Thiazolyl blue) (Sigma M 5655) and incubated overnight in the dark. The following day, the cells were observed under the microscope and checked for the presence of crystals under the area of sample loading. The sample causing cell death was indicated by a clear zone of inhibition. The colour was allowed to develop overnight and the zone of inhibition was measured. The readings of the test samples were then scored based on comparisons with the positive and negative controls in compliance with the USP (U.S. Pharmacopoeia) grades for the agar diffusion test (Table 2).

Compound	moisture content retained until 8 hours after application (skin; 8 hours after application) [%]	moisture content after application (skin; after application) [%]	Reactivity [1]	Zone of Inhibition, mean per experiment ([1]; sample neat (100% concentration), Expt 1-3, sulphate)	Zone of Inhibition, individual readings ([1]; sample neat (100% concentration), reference standard 10% (100 mg/ml), Expt 1-3, sulphate)	Zone of Inhibition, Mean ± SD of three independent experiments ([1]; sample neat (100% concentration), listed as positive control, sulphate) [cm]	Zone of Inhibition, Mean ± SD of three independent experiments ([1]; sample neat (100% concentration), sulphate) [cm]
C[Si]1(C)O[Si](C)(C)O[Si](C)(C)O[Si](C)(C)O[Si](C)(C)O1 [Cyclopentasiloxane, cyclopentasiloxane]	21	23	–	–	–	–	–
CCCCCCCCCCCCOS(=O)(=O)[O-].[Na+] [Positive Control, sodium dodecyl sulphate]	–	–	Severe (Zone extends greater than 1.0 cm beyond specimen)	1.08 cm and 1.14 cm and 1.20 cm	1.05 cm and 1.03 cm and 1.17 cm and 1.13 cm and 1.07 cm and 1.23 cm and 1.20 cm and 1.18 cm and 1.22 cm	1.14±0.06	1.14 ± 0.06
